In series [1] the target is T1, Histone-lysine N-methyltransferase EHMT1 (Homo sapiens, UniProt Q9H9B1).
T1 sequence (Q9H9B1 whole entry): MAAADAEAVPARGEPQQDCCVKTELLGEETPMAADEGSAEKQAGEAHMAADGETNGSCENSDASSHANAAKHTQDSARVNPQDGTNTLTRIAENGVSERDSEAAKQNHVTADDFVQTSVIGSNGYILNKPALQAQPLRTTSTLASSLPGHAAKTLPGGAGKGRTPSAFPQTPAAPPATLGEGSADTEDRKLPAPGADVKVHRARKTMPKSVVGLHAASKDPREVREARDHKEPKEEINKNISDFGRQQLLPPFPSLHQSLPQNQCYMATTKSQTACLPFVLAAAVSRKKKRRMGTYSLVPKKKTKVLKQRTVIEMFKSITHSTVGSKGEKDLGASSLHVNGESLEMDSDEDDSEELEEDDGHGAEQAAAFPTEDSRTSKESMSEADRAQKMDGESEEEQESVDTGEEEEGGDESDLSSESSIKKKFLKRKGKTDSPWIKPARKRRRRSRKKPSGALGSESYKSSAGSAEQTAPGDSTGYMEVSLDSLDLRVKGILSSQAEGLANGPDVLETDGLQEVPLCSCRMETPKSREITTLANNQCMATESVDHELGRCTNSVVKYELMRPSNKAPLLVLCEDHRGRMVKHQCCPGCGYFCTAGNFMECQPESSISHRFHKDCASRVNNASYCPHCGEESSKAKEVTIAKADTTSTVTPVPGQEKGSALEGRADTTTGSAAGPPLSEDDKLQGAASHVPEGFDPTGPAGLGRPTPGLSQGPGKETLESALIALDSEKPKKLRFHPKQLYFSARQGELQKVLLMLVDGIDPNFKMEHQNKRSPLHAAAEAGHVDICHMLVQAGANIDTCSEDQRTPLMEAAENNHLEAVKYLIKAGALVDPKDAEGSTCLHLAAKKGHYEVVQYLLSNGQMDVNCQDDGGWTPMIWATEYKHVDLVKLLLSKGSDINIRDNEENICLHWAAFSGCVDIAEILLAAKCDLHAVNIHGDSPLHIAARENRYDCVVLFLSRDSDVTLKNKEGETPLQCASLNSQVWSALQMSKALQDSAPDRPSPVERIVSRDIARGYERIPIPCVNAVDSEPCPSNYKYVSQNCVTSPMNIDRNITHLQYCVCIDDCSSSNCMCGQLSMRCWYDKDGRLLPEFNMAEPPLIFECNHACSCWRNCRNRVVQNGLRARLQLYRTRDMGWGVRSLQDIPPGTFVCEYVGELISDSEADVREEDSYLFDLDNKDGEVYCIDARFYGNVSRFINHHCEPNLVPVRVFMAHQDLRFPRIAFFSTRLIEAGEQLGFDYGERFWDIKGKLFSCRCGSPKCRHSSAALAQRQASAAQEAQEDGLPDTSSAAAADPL
Nature of the series: Binding affinity to GLP (unknown origin) assessed as inhibition constant.

Series [2] concerns the target T2, Histone-lysine N-methyltransferase EHMT2 (Homo sapiens, UniProt Q96KQ7).
T2 sequence (Q96KQ7 whole entry): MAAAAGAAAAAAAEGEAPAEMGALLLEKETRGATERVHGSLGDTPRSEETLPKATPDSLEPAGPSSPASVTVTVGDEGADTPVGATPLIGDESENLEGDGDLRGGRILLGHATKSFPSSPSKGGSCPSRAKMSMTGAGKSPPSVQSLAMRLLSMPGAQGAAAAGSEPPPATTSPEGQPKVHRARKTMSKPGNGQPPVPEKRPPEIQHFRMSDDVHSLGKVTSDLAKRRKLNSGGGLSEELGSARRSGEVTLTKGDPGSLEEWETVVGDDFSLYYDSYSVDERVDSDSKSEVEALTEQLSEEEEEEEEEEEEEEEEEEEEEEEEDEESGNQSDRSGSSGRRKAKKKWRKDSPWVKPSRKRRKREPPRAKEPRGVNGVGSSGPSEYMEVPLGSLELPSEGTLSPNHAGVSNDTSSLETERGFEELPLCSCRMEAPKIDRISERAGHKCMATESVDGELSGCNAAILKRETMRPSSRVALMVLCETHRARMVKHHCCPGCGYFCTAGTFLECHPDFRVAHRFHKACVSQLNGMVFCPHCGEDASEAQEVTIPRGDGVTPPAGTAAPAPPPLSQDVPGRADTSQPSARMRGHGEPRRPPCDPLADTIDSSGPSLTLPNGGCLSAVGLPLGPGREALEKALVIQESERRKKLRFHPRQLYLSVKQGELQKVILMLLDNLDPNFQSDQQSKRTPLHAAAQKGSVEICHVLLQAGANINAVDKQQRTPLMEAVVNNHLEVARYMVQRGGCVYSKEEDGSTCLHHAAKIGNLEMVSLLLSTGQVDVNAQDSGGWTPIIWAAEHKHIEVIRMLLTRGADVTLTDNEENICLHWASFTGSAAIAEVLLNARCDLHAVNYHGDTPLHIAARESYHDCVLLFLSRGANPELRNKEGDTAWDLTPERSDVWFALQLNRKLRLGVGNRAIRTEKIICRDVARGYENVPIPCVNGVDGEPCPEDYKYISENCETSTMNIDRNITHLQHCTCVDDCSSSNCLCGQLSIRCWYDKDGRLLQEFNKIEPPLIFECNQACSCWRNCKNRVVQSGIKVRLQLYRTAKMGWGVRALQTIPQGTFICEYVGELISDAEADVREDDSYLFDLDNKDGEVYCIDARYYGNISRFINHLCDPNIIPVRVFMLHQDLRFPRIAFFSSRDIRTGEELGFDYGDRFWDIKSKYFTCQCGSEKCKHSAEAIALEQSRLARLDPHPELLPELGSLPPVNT
Briefly: Binding affinity to G9a (unknown origin) assessed as inhibition constant.

The target in series [3] is T2, Histone-lysine N-methyltransferase EHMT2. Nature of the series: Inhibition of G9a (unknown origin).
The subject of series [4] is MCF7. Nature of the series: Cytotoxicity against human MCF7 cells. The series is classed as functional, cell-based.
Series [5] deals with DOHH-2. Briefly: Antiproliferative activity against human DOHH-2 cells assessed as reduction in cell viability. The series is classed as functional, cell-based.
Series [6] deals with SU-DHL-8. Nature of the series: Antiproliferative activity against human SU-DHL-8 cells assessed as reduction in cell viability. The series is classed as functional, cell-based.
A short description of series [7]: Antiproliferative activity against human WILL-1 cells assessed as reduction in cell viability. The series is classed as functional, cell-based.
In series [8] the test system is T47D. Nature of the series: Antiproliferative activity against human T47D cells assessed as reduction in cell viability by sulforhodamine B assay. The series is classed as functional, cell-based.
Series [9] in a line: Antiproliferative activity against human SC1 cells assessed as reduction in cell viability. Type of series: functional, cell-based. To be noted: SC-1.
Series [10] has as its system MCF7. Nature of the series: Antiproliferative activity against human MCF7 cells assessed as reduction in cell viability by sulforhodamine B assay. Type of series: functional, cell-based.
For series [11], the system named is DB. Briefly: Antiproliferative activity against human DB cells assessed as reduction in cell viability. The series is classed as functional, cell-based.
For series [12], the system named is SK-BR-3. Briefly: Antiproliferative activity against human SK-BR-3 cells assessed as reduction in cell viability by sulforhodamine B assay. The series is classed as functional, cell-based.
Series [13] in a line: Antiproliferative activity against human WSU-FSCCL cells assessed as reduction in cell viability. The series is classed as functional, cell-based.
In series [14] the target is T1, Histone-lysine N-methyltransferase EHMT1. Briefly: Inhibition of GLP (unknown origin).
A short description of series [15]: Microsomal stability in mouse liver microsomes assessed as half life incubated upto 60 mins by LC-MS/MS analysis. The series is classed as ADME, Microsome.
Series [16] can be described thus: Microsomal stability in human liver microsomes assessed as half life measured for incubated upto 60 mins by LC-MS/MS analysis. The series is classed as ADME, Microsome.
Series [17] can be described thus: Half life in Balb/c mouse at 3 mg/kg, iv. The series is classed as ADME, organism-based. The note with it: in vivo.
The target in series [18] is T2, Histone-lysine N-methyltransferase EHMT2. Nature of the series: Inhibition of G9a (unknown origin) using H3 as peptide substrate measured after 20 mins by fluorescence based analysis.
Series [19] addresses hERG (KCNH2) (Homo sapiens, UniProt Q12809). Nature of the series: Inhibition of hERG at 30 uM relative to control. Type of series: toxicity.
The nature of series [20]: Cmax in mouse at 10 mg/kg, po. The series is classed as ADME, organism-based. The note with it: in vivo.
Series [21] deals with T1, Histone-lysine N-methyltransferase EHMT1. Nature of the series: Inhibition of GLP (unknown origin) measured after 20 mins by fluorescence based analysis.

Sequence of hERG (KCNH2) (Q12809 whole entry): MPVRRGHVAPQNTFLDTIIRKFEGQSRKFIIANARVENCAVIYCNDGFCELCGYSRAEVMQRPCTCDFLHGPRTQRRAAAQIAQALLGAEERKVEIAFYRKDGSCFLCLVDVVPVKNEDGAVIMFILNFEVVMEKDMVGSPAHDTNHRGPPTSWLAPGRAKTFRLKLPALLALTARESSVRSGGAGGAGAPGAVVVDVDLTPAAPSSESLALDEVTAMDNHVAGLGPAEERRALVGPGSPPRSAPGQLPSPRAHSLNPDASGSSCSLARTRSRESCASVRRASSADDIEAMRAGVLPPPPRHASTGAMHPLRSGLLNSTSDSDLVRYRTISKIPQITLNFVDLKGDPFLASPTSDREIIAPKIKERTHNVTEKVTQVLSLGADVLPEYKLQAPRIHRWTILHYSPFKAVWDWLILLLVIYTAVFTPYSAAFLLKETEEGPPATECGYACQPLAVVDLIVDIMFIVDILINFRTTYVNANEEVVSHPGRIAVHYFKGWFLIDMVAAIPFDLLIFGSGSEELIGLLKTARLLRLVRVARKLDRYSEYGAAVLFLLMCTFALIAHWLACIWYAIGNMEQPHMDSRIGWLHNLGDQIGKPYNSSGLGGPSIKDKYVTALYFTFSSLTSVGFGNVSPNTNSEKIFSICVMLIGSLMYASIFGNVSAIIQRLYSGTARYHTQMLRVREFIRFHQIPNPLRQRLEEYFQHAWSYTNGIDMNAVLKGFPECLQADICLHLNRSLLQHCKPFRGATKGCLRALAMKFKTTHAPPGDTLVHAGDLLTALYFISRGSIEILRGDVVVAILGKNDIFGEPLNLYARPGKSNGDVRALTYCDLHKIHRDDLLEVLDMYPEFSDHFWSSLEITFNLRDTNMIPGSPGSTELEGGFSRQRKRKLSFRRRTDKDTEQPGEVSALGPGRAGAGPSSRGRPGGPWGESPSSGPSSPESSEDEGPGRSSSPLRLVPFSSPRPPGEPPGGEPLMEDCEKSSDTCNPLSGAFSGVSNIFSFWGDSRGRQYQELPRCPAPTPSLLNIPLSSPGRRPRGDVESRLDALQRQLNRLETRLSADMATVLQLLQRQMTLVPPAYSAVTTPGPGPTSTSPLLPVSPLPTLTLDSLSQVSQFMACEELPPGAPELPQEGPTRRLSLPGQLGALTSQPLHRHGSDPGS

With `COc1cc2c(NC3CCN(C)CC3)nc(N3CCCN(C)CC3)nc2cc1OCCOCCN(C)C`, the Ki in series [1] stood at 15 nM; in series [2], 9 nM. Further, in series [3], the IC50 is less than 15 nM.
In the case of `COc1cc2c(NC3CCN(C(C)C)CC3)nc(C3CCCCC3)nc2cc1OCCCN1CCCC1`, the EC50 in [4] stood at 7600 nM.
Consider `COc1cc2nc(N3CCN(C)CC3)nc(NC3CCN(Cc4ccccc4)CC3)c2cc1OC`, for which the IC50 in [5] is 3300 nM; in series [6], less than 1000 nM; in [7], 5600 nM; in series [8] it was 8500 nM; in series [9], 3700 nM; in [10] it was 7700 nM. In addition, the IC50 in series [11] is less than 1000 nM; in [12], 7700 nM; in [13], 3400 nM.
For `COc1cc2c(NC3CCN(C(C)C)CC3)nc(N3CCOCC3)nc2cc1OCCCN1CCCC1`, the IC50 in series [14] is less than 2.5 nM.
On to `COc1cc2c(NC3CCN(C(C)C)CC3)cc(C3CCCCC3)nc2cc1OCCCN1CCCC1`, for which the IC50 in series [14] worked out at 0.7 nM.
On to `COc1cc2c(NC3CCN(C4CC4)CC3)cc(-c3ccc(C)o3)nc2cc1OCCCN1CCCC1`, for which the half-life is 0.6 h in series [15], greater than 2.4 h in series [16] and 24.2 h in series [17]. The compound also registered an IC50 in series [14] of 22 nM.
The corresponding values for `COc1cc2c(NC3CCN(C)CC3)cc(-c3ccc(C)o3)nc2cc1OCCCN1CCCC1` are 0.1 h, greater than 2.4 h, 10.4 h and 8 nM.
As to `CNc1cc(C)nc(Nc2ccc(OC)c(C3=CCNCCC3)c2)n1`, 32.3 nM corresponded to half-maximal inhibition in series [18] (IC50).
With `COc1cc2c(cc1C1=CCN(C)CCC1)N=C(N)C21CCC1`, at 30 µM the inhibition in series [19] was 1%. The compound further had an IC50 in series [18] of 75.7 nM.
As for `Cc1c(C(=O)N[C@@H](CCC2CC2)C(=O)Nc2ccc(C#N)cc2)[nH]c2c1C(=O)CC(C)(C)C2`, the highest level in series [20] (Cmax) was 42.4 µM. Also, the 50% inhibitory concentration (IC50) in series [14] was determined as 53 nM.
Turning to `CN1C(=O)[C@]23C[C@]4([C@]56C[C@]78SS[C@](CO)(C(=O)N7[C@H]5Nc5ccccc56)N(C)C8=O)c5ccccc5N[C@@H]4N2C(=O)[C@@]1(CO)SS3`, inhibition in series [3] was half-maximal at 1700 nM (IC50).
Turning to `COc1cc2c(N(C)C3CCN(C(C)C)CC3)nc(C3CCCCC3)nc2cc1OCCCN1CCCC1`, the values for the IC50 in series [14] and in series [3] were greater than 10 nM and 5 nM, respectively.
In series [3], `CN1C(=O)C2C[C@]3([C@]45CC6C(=O)N(C)[C@@H](CO)C(=O)N6[C@H]4Nc4ccccc45)c4ccccc4N[C@@H]3N2C(=O)[C@@H]1CO` (some centres not stated) returned an IC50 greater than 50000 nM.
On the same count and under the same terms, then `CN1C(=O)C2C[C@]3([C@]45CC6C(=O)N(C)[C@H](CO)C(=O)N6[C@H]4Nc4ccccc45)c4ccccc4N[C@@H]3N2C(=O)[C@H]1CO` (some centres not stated), with greater than 50000 nM.
On to `COc1cc2c(cc1C1=CCNCCC1)N=C(N)C21CCC1`, for which the IC50 in series [21] and in series [18] was 33.9 nM each time. Also, in [19], 30 µM produced 5% inhibition.
The compound `CCN(c1cc(-c2ccc(CN3CCOCC3)cc2)cc(C(=O)NCc2c(C)cc(C)[nH]c2=O)c1C)C1CCOCC1` [TAZEMETOSTAT] yielded an IC50 in series [3] of 15 nM.

The record behind these values is ChEMBL document CHEMBL6087477, “G9a/GLP Modulators: Inhibitors to Degraders” (J Med Chem, 2025).
